Data: patent US12669505B2, “Detection of desmoglein-2 in cancers of epithelial origin” (HDT Bio Corp., priority 2019, dated 2026)

Test system: ovarian cancer cell lines (OV-CAR)
Experiment: Western blot of DSG2 in OV-CAR cell supernatants after cisplatin treatment
Type: cell-based
Description: FIGS. 5A, 5B and 5C (collectively FIGS. 5A-5C) show the effect of DSG2 expression in response to cisplatin.
Western Blot. Mini-PROTEAN precast gels (BIO-RAD, Hercules, CA) with 4-15% gradient polyacrylamide are used. A total of 1 μg protein mixed with 2× loading buffer (10 mM Tris-HCl, pH 6.8, 200 mM DTT, 4% SDS, 20% glycerol, 0.2% bromophenol blue) is loaded per lane. Samples are either boiled (B) for 5 min or loaded unboiled (UB). The following running buffer is used: 25 mM Tris, pH 8.3, 0.192 M glycine, 0.1% SDS. After electrophoresis, proteins are transferred to nitrocellulose and incubated with the corresponding antibodies. For detection of DSG2 binding, filters are incubated with recombinant human DSG2 protein and anti-DSG2 antibody 6D8 as described (Wang et al. Nat Med. 2011; 17(1):96-104). Other Western blots use a primary mouse monoclonal antibody followed by an anti-mouse IgG HRP conjugate. Selected Western blots are scanned and quantified using the ImageJ 1.32 software (National Institutes of Health, Bethesda, MD).
In this Example, a potential mode of chemoresistance was investigated, DSG2 protein levels were determined in cancer cells after treatment with cisplatin, a commonly used platinum-based therapeutic used as first-line treatment of ovarian cancer and its metastases.
Cell supernatants from ovarian cancer cell lines (OV-CAR) were first interrogated with monoclonal and polyclonal anti-DSG2 antibodies to confirm specificity of the antibodies. […] Within 2 days of cisplatin treatment, the presence of cleaved DSG2, a product of DSG2 shedding, was detected in cell supernatant (FIGS. 5A and 5B). Quantitative analysis of the blot intensity indicated DSG2 peaking at 2 days after cisplatin treatment.

SMILES: N.N.[Cl][Pt][Cl] [cisplatin]
- time of DSG2 peak by quantitative analysis of blot intensity (OV-CAR cells, after cisplatin treatment, ImageJ, day 0 as control): 2 days
- time until cleaved DSG2 (product of DSG2 shedding) was detected in cell supernatant (OV-CAR cells, after cisplatin treatment, Western blot): ≤ 2 days
- DSG2 response of ovarian cancer cells to treatment (cisplatin treatment): upregulated and shed in increased amounts
